Earlier results as cited in article PMC8508678, “Novel P2X7 Antagonist Ameliorates the Early Phase of ALS Disease and Decreases Inflammation and Autophagy in SOD1-G93A Mouse Model” (International Journal of Molecular Sciences, 2021).
Read-outs that look alike come from different tables or passages of the source.

Tests used:
SOD1-G93A mice [1] = tested on: SOD1-G93A mice; parameters: key to NF-κB / NOX2 / P2X7 / ARG1 / CD68 / GFAP / LC3B-II: The symbol ↑ refers to upregulation; ↓ to downregulation; = indicates no change with respect to the vehicle-treated SOD1-G93A mice
SOD1-G93A mice [2] = tested on: SOD1-G93A mice; parameters: key to Motor Neuron loss: The symbol ↑ refers to upregulation; ↓ to downregulation; = indicates no change with respect to the vehicle-treated SOD1-G93A mice
SOD1-G93A mice [3] = tested on: SOD1-G93A mice; parameters: key to Motor behavior / Survival: The symbol ↑ refers to upregulation; ↓ to downregulation; = indicates no change with respect to the vehicle-treated SOD1-G93A mice
[4] = SOD1-G93A mice, vs vehicle ref 31
[5] = SOD1-G93A mice, vs vehicle ref 28, 29
[6] = ALS mice, four times per week starting at post-natal day 60 ref 41

C[C@H](N=C(NC#N)Nc1cccc2ncccc12)c1ccccc1 [A804598]
P2X7 expression levels in the spinal cord (SOD1-G93A mice [1]; SOD1-G93A mice ref 31): failed to affect | autophagic substrate p62 accumulating in vivo (SOD1-G93A mice [1]; SOD1-G93A mice ref 31): decreases | motor neuron loss or astrogliosis and microgliosis in the spinal cord (SOD1-G93A mice [1]; SOD1-G93A mice ref 31): neither A804598 nor AXX13 treatments affected | ARG1 (SOD1-G93A mice [1]; [4]): = | CD68 (SOD1-G93A mice [1]; [4]): = | GFAP (SOD1-G93A mice [1]; [4]): = | LC3B-II (SOD1-G93A mice [1]; [4]): = | NF-κB (SOD1-G93A mice [1]; [4]): = | NOX2 (SOD1-G93A mice [1]; [4]): = | P2X7 (SOD1-G93A mice [1]; [4]): = | IL-1β mRNA expression (SOD1-G93A mice [1]; SOD1-G93A mice, only this inflammatory marker affected ref 31): downregulated | Motor Neuron loss (SOD1-G93A mice [2]; [4]): = | amelioration of disease progression (SOD1-G93A mice [3]; SOD1-G93A mice ref 31): failed | Motor behavior (SOD1-G93A mice [3]; [4]): = | Survival (SOD1-G93A mice [3]; [4]): =

CCOc1ccc(Nc2ccc(/C(=C3C=C/C(=[N+](/CC)Cc4cccc(S(=O)(=O)[O-])c4)C=C/3C)c3ccc(N(CC)Cc4cccc(S(=O)(=O)O)c4)cc3C)cc2)cc1 [BBG, brilliant blue G]
microgliosis (SOD1-G93A mice [1]; SOD1-G93A mice ref 29): reduces | GFAP (SOD1-G93A mice [1]; [5]): = | P2X7 (SOD1-G93A mice [1]; [5]): = | motor neuron survival in the lumbar spinal cord (SOD1-G93A mice [2]; SOD1-G93A mice ref 29): enhances | disease onset (SOD1-G93A mice [3]; ALS mice, modest improvement in general conditions and motor performance ref 29): induces a delay of disease onset | Survival (SOD1-G93A mice [3]; [5]): =

O=C(NCC1(N2CCN(c3ccccc3)CC2)CCOCC1)c1cccnc1Sc1ccccc1 [JNJ-47965567]
disease onset, body weight loss and motor parameters (SOD1-G93A mice [3]; [6]): able to delay disease onset, reduce body weight loss, and improve the motor parameters | survival or motor neuron number (SOD1-G93A mice [3]; [6]): without affecting | survival, disease progression, molecular and cellular parameters of ALS (SOD1-G93A mice [3]; SOD1-G93A mice, three times per week from the early symptomatic phase ref 32): totally failed
